Source: US5364854A, “Derivatives of substituted imidazo benzoxazin-1-one and process for their preparation” (Farmitalia Carlo Erba S.r.l., priority 1992, dated 1994)
Counter-ions that a name gives are not always drawn.

Columns and labels:
5HT3 receptor [1] = target: T1, 5HT3 receptor (Rattus norvegicus, UniProt P35563); test: Inhibition of the von Bezold-Jarisch chemoreflex evoked by 5-HT (20 μg/kg i.v.) in the anesthetised rat (in vivo 5HT3 antagonist activity); set-up: chemoreflex evoked by 5-HT in the anesthetised rat; from tissue; host or cells: anaesthetised rat in vivo (own knowledge: 5-HT3 receptors on cardiac vagal afferents); settings: anesthetized rat; for % Inhibition: mean ± S.E.M.; for ED50: iv, limits in parentheses on the following line
T1 sequence (P35563 24-483): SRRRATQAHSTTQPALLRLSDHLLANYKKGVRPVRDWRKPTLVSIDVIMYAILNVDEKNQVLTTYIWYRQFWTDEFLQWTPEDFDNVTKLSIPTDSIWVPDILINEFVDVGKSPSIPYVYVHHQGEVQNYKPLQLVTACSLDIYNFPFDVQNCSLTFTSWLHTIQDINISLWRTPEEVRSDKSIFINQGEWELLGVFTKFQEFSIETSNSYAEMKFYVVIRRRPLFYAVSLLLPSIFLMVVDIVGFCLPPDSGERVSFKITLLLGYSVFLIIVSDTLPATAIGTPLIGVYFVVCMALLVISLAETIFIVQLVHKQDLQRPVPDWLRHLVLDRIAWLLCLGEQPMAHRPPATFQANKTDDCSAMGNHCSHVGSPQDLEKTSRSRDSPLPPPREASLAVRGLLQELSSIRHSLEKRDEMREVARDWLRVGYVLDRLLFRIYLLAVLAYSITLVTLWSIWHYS
Description: Pharmacol. 326, 36-44 (1984).
The following Table I reports the in vivo 5HT3 antagonist activity data obtained in this test for the representative compounds of the invention 2,3,3a,4-tetrahydro-2-(1-azabicyclo [2.2.2]oct-3-yl)-8-chloro-1H-imidazo[5,1-c][1,4]benzoxazin-1-one hydrochloride (internal code FCE 26781);
Inhibition of the Bezold-Jarisch reflex elicited by 5-HT (20
μg/kg i.v.) by i.v. FCE compounds in the anesthetized rat.
Values are mean ± S.E.M. from N animals

5HT3 receptor [2] = target: T1, 5HT3 receptor; test: 5-HT3 binding affinity in rat entorhinal cortex using ^3 H-BRL 43694 (Granisetron); set-up: labelled in the entorhinal cortex of the rat brain; from tissue; host or cells: rat entorhinal cortex
Description: The affinity for serotonin 5-HT3 receptor was also assessed for instance in rat entorhinal cortex using the selective radioligand ^3 H-[…] as described by Nelson and Thomas (1989).
Nelson D. R. and Thomas D. R., [^3 H]-BRL 43694 (Granisetron), a specific ligand for 5-HT3 binding sites in rat brain cortical membranes Biochem. Pharmac. 38, 1693-1695, 1989.
The following Table III summarizes the data obtained in this in vitro test for a representative group of compounds of the invention in comparison with the known reference compounds MDL 72222 and Metoclopramide.
5-HT3 binding affinity ^b) for rat entorhinal cortex.
^(b) ^3 […] labelled 5HT3 sites

5HT3 receptor [3] = target: T1, 5HT3 receptor; test: Inhibition of the binding of ^3 H-GR65630 to 5-HT3 sites in rat entorhinal cortex; set-up: labelled in the entorhinal cortex of the rat brain; from tissue; host or cells: rat entorhinal cortex
Text: (§1) The following Table II reports the data obtained in this in vitro test for a representative group of compounds of the invention in comparison with the known reference compounds MDL 72222 and Metoclopramide.
(§2) 5-HT3 binding affinity ^(a) for rat entorhinal cortex
(§3) ^(a) [^3 HGR 65630 labelled 5HT3 sites.
(§4) The tested compounds were able to interact with 5-HT3 -serotonin receptors labelled in the entorhinal cortex of the rat brain with ^3 H-GR 65630.

5-HT3 receptor = test: as above; settings: ^3 H-GR 65630, rat entorhinal cortex, low (affinity site), two-site fit
Text: as §1, §2, §3, §4

[4] = ^3 H-GR 65630, rat entorhinal cortex, high (affinity site), only Ki where one-site fit, read-out: Ki high
[5] = ^3 H-BRL 43694 labelled 5HT3 sites, rat entorhinal cortex, read-out: Ki

Row | SMILES | % Inhibition (5HT3 receptor [1]; 50 μg/kg i.v., N=6) | % Inhibition (5HT3 receptor [1]; 150 μg/kg i.v., N=6) | % Inhibition (5HT3 receptor [1]; 450 μg/kg i.v., N=6) | ED50 (5HT3 receptor [1]) | Ki (5HT3 receptor [2]) | Ki (5HT3 receptor [3]) | Ki (5-HT3 receptor) | % Inhibition (5HT3 receptor [1]; 100 μg/kg i.v., N=3-7) | Ki (5HT3 receptor [3]; [4]) | Ki (5HT3 receptor [2]; [5])
1 | Cl.O=C1N(C2CN3CCC2CC3)CC2COc3ccc(Cl)cc3N12 (stereo not shown) [FCE 26781, 2,3,3a,4-tetrahydro-2-(1-azabicyclo [2.2.2]oct-3-yl)-8-chloro-1H-imidazo[5,1-c][1,4]benzoxazin-1-one hydrochloride] | 29.50 ± 6.34% | 50.38 ± 5.45% | 90.38 ± 2.80% | 0.112 mg/kg | 0.013 µM | 0.00261 µM | 1.9 µM |  |  | 
2 | CN1C2CCC1CC(N1CC3COc4ccc(Cl)cc4N3C1=O)C2 (stereo not drawn) [FCE 26783, (endo)-2,3,3a,4-tetrahydro-8-chloro-2-(8-methyl-8-azabicyclo [3.2.1]oct-3-yl)-1H-imidazo[5,1-c][1,4]benzoxazin-1-one hydrochloride] |  |  |  |  | 0.03 µM |  |  | 30.9 ± 6.0% | 0.4 µM | 
3 | CN1C2CCCC1CC(N1CC3COc4ccc(Cl)cc4N3C1=O)C2 (stereo not drawn) [FCE 26785, (endo)-2,3,3a,4-tetrahydro-8-chloro-2-(9-methyl-9-azabicyclo[3.3.1]non-3-yl)-1H-imidazo[5,1-c][1,4]benzoxazin-1-one hydrochloride] |  |  |  |  |  | 0.00979 µM | 0.6 µM |  |  | 0.31 µM
4 | CN1C2CCC1CC(N1CC3COc4ccccc4N3C1=O)C2 (stereo not drawn) [FCE 26878, (endo)-2,3,3a,4-tetrahydro-2-(8-methyl-8-azabicyclo[3.2.1]oct-3-yl)-1H-imidazo[5,1-c][1,4]benzoxazin-1-one, hydrochloride] |  |  |  | 0.0138 mg/kg | 0.009 µM | 0.07 µM |  | 85.8 ± 1.7% |  | 
5 | Cl.O=C1N(C2CN3CCC2CC3)CC2COc3ccccc3N12 (stereo not shown) [FCE 26962, 2,3,3a,4-tetrahydro-2-(1-azabicyclo[2.2.2]oct-3-yl)-1H-imidazo [5,1-c][1,4]benzoxazin-1-one hydrochloride] |  |  |  | 0.0263 mg/kg | 0.0004 µM | 0.00974 µM | 14 µM | 86.4 ± 1.8% |  | 
6 | CN1C2CCCC1CC(N1CC3COc4ccccc4N3C1=O)C2 (stereo not drawn) [FCE 26963, (endo)-2,3,3a,4-tetrahydro-2-(9-methyl-9-azabicyclo[3.3.1]non-3-yl)-1H-imidazo[5,1-c][1,4]benzoxazin-1-one hydrochloride] |  |  |  |  |  |  | 72 µM | 27.1 ± 10.7% | 0.151 µM | 0.17 µM
7 | CN1C2CCC1CC(OC(=O)c1cc(Cl)cc(Cl)c1)C2 (stereo not shown) [MDL 72222, reference compound] |  |  |  |  | 0.023 µM |  |  |  |  | 
8 | CCN(CC)CCNC(=O)c1cc(Cl)c(N)cc1OC [Metoclopramide, reference compound] |  |  |  |  | 0.49 µM |  |  |  |  | 
